Values quoted from earlier work as cited in article PMC4382562 (Current Chemical Genomics and Translational Medicine, 2015).

System: iCell Neurons
Settings: read-out: Neurite outgrowth IC50 (high content image-based analysis), previously reported

| Structure (SMILES) | IC50 |
| --- | --- |
| CCCCCC[C@H]1C(=O)O[C@H](C)[C@H](NC(=O)c2cccc(NC=O)c2O)C(=O)O[C@@H](C)[C@@H]1OC(=O)CC(C)C [Antimycin A] | ~13 µM |
| CN[C@@H]1C[C@H]2O[C@@](C)([C@@H]1OC)n1c3ccccc3c3c4c(c5c6ccccc6n2c5c31)C(=O)NC4 [Staurosporine] | ~0.9 µM |
